Experimental data reported in the supplement of paper PMC10307832.

Key:
Assay in all cases: relative viability (nuclei count vs DMSO), 5 days (fraction); higher = more cells survive
[1] = compound: CS(=O)(=O)N1CCN(Cc2cc3nc(-c4cccc5[nH]ncc45)nc(N4CCOCC4)c3s2)CC1 [Pictilisib] + COc1cccc2cc(-c3nc([C@H]4CC[C@H](C(=O)O)CC4)n4ncnc(N)c34)[nH]c12 [OSI-027] (partner 0.5 µM)
Procedure, shortened: (§1)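 Relative viability was taken as the ratio of nuclei in treated wells to nuclei in vehicle wells. Lung cancer cell lines in 1536-well plates received compounds by pin tool one day after seeding, either one drug alone or a fixed anchor-drug dose plus five library-drug doses (not always all listed) in √10 steps. Nuclei were counted on 4× images after 5 days of treatment, and values are medians of duplicate plates.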

[2] = compound: NC1(c2ccc(-c3nc4ccn5c(=O)[nH]nc5c4cc3-c3ccccc3)cc2)CCC1 [MK-2206] + COc1cc2c(Oc3ccc(NC(=O)C4(C(=O)Nc5ccc(F)cc5)CC4)cc3F)ccnc2cc1OCCCN1CCOCC1 [Foretinib] (partner 0.25 µM)
Procedure, shortened: as §1

[3] = compound: NC1(c2ccc(-c3nc4ccn5c(=O)[nH]nc5c4cc3-c3ccccc3)cc2)CCC1 [MK-2206] + Cc1nc(NC(=O)N2CCC[C@H]2C(N)=O)sc1-c1ccnc(C(C)(C)C(F)(F)F)c1 [Alpelisib] (partner 2 µM)
Procedure, shortened: as §1

[4] = compound: NC1(c2ccc(-c3nc4ccn5c(=O)[nH]nc5c4cc3-c3ccccc3)cc2)CCC1 [MK-2206] + Cc1nc(Nc2ncc(C(=O)Nc3c(C)cccc3Cl)s2)cc(N2CCN(CCO)CC2)n1 [Dasatinib] (partner 0.075 µM)
Procedure, shortened: as §1

Cell Line	relative viability ([1]; first compound 0.02 µM)	relative viability ([1]; first compound 0.06325 µM)	relative viability ([1]; first compound 0.6325 µM)	relative viability ([1]; first compound 2 µM)	relative viability ([2]; first compound 0.01 µM)	relative viability ([2]; first compound 0.03162 µM)	relative viability ([2]; first compound 0.3162 µM)	relative viability ([2]; first compound 1 µM)	relative viability ([3]; first compound 0.01 µM)	relative viability ([3]; first compound 0.03162 µM)	relative viability ([3]; first compound 0.3162 µM)	relative viability ([3]; first compound 1 µM)	relative viability ([4]; first compound 0.01 µM)	relative viability ([4]; first compound 0.03162 µM)	relative viability ([4]; first compound 0.3162 µM)	relative viability ([4]; first compound 1 µM)
NCI-H2023	0.385	0.33	0.151	0.0847	0.943	0.972	0.922	0.722	0.517	0.598	0.472	0.405	0.6	0.542	0.443	0.362
Calu-6					0.939	0.99	0.837	0.937	1.13	1.01	0.994	0.909				
SW 900	0.655	0.715	0.501	0.289	0.864	0.936	0.882	0.769					0.573	0.636	0.531	0.476
HOP-62	0.929	0.868	0.666	0.535	1.09	1.16	1.15	1.06	1.14	0.925	1.03	0.914	0.592	0.73	0.624	0.665
H3255	0.58	0.578	0.389	0.309	0.866	0.971	0.731	0.746	0.694	0.748	0.53	0.6	0.347	0.344	0.288	0.284
NCI-H1734	0.552	0.554	0.291	0.224	1	0.994	0.682	0.64	0.709	0.625	0.451	0.521	0.501	0.449	0.408	0.387
SK-MES-1	0.596	0.566	0.334	0.215	0.893	1.06	0.886	0.84	0.882	1.05	0.786	0.851	0.396	0.437	0.356	0.425
NCI-H1792	0.752	0.617	0.335	0.173					0.673	0.652	0.706	0.773	0.758	0.845	0.913	0.819
EKVX	0.697	0.352	0.561	0.269	0.877	0.673	0.855	0.387	0.761	0.904	0.843	0.82	0.73	0.522	0.536	0.569
EPLC-272H	0.296	0.284	0.242	0.18	0.811	0.686	0.649	0.633	0.993	0.851		0.929	0.486	0.333	0.256	0.306
LK-2	0.183	0.208	0.15	0.142	1.57	1.19	1.34	1.39	0.977	1.42	1.13	1.06	0.231	0.299	0.327	0.19
CAL-12T	0.8	0.642	0.339	0.167	1.07	0.962	1.15	1.19	1.04	1.03	1.05	0.895	0.486	0.504	0.355	0.345
NCI-H322M	0.546	0.538	0.366	0.392	0.871	1.11	1.1	1.01	0.864	0.79	0.732	0.701	0.258	0.268	0.288	0.284
NCI-H1650	0.677	0.713	0.368	0.207	1.28	1.15	0.864	0.947					0.312	0.273	0.215	0.244
NCI-H2342	0.541	0.605	0.551	0.417	0.985	1.13	1	0.901					0.369	0.296	0.282	0.276
SW 1573	0.615	0.584	0.362	0.237	0.833	1.28	0.755	0.956	0.763	0.817	0.607	0.613	0.431	0.554	0.364	0.419
NCI-H2405	0.548	0.569	0.486	0.278	1.03	1.08	0.991	0.98	0.762	0.877	0.728	0.673	0.208	0.241	0.182	0.231
LCLC-103H	0.494	0.438	0.287	0.262	0.867	0.792	0.669	0.698	1.02	0.977	0.933	0.826	0.459	0.497	0.461	0.355
